Data reported in PubChem BioAssay AID2060609 (Molecular Pharmacology Branch, DTP, NCI, 2025).
“And” between values parts separate entries of the source, which are not always exact repeats. Identical values can stand only once.

Tested on: 855422-203-R-J1-PDC complex spheroids, viability
Assay: Anticancer human tumor 855422-203-R-J1-PDC patient-derived bladder carcinoma cell line growth inhibition [CLK]
Settings: for viability, T/C: stronger effect = lower value
Procedure, shortened: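 Patient-derived tumor cells grown as complex spheroids with HUVEC endothelial cells and mesenchymal stem cells, treated with drug combinations. Concentrations descend in half-log steps from near clinical Cmax, or from 10 microM if Cmax unknown.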

[1] = curve of first compound, second compound 0.0316 µM
[2] = curve of first compound, second compound 0.1 µM
[3] = curve of first compound, second compound 0.316 µM
[4] = curve of first compound, second compound 1 µM
[5] = curve of first compound, second compound 3.16 µM
[6] = curve of first compound, second compound 10 µM
[7] = second compound 0.0316 µM, first compound 0.0316 µM
[8] = second compound 0.0316 µM, first compound 0.1 µM
[9] = second compound 0.0316 µM, first compound 0.316 µM
[10] = second compound 0.0316 µM, first compound 1 µM
[11] = second compound 0.1 µM, first compound 0.0316 µM
[12] = second compound 0.1 µM, first compound 0.1 µM
[13] = second compound 0.1 µM, first compound 0.316 µM
[14] = second compound 0.1 µM, first compound 1 µM
[15] = second compound 0.316 µM, first compound 0.0316 µM
[16] = second compound 0.316 µM, first compound 0.1 µM
[17] = second compound 0.316 µM, first compound 0.316 µM
[18] = second compound 0.316 µM, first compound 1 µM
[19] = second compound 1 µM, first compound 0.0316 µM
[20] = second compound 1 µM, first compound 0.1 µM
[21] = second compound 1 µM, first compound 0.316 µM
[22] = second compound 1 µM, first compound 1 µM
[23] = second compound 3.16 µM, first compound 0.0316 µM
[24] = second compound 3.16 µM, first compound 0.1 µM
[25] = second compound 3.16 µM, first compound 0.316 µM
[26] = second compound 3.16 µM, first compound 1 µM
[27] = second compound 10 µM, first compound 0.0316 µM
[28] = second compound 10 µM, first compound 0.1 µM
[29] = second compound 10 µM, first compound 0.316 µM
[30] = second compound 10 µM, first compound 1 µM
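Further: spheroids exposed to drugs for seven days before readout.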
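Wherever viability, T/C is given: 100% = DMSO vehicle control wells.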

## CCN1CCN(Cc2ccc(Nc3ncc(F)c(-c4cc(F)c5nc(C)n(C(C)C)c5c4)n3)nc2)CC1 + CNC(=O)c1ccc(Nc2nc(OC3CCCC3)c3c(-c4ccc5nc(C)oc5c4)c[nH]c3n2)c(OC)c1
[1]
  IC50: > 1000 nM
[2]
  IC50: 6.4 nM
[3]
  IC50: < 3.16 nM
[4]
  IC50: < 3.16 nM
[5]
  IC50: < 3.16 nM
[6]
  IC50: < 3.16 nM
Second compound 0.0316 µM, first compound 0.00316 µM
  viability, T/C: 88%
Second compound 0.0316 µM, first compound 0.01 µM
  viability, T/C: 90.2%
[7]
  viability, T/C: 74.8%
[8]
  viability, T/C: 56.8%
[9]
  viability, T/C: 56.4%
[10]
  viability, T/C: 46.2%
Second compound 0.1 µM, first compound 0.00316 µM
  viability, T/C: 59.3%
Second compound 0.1 µM, first compound 0.01 µM
  viability, T/C: 48%
[11]
  viability, T/C: 31.6%
[12]
  viability, T/C: 33.7%
[13]
  viability, T/C: 31.8%
[14]
  viability, T/C: 37.3%
Second compound 0.316 µM, first compound 0.00316 µM
  viability, T/C: 23.3%
Second compound 0.316 µM, first compound 0.01 µM
  viability, T/C: 27.7%
[15]
  viability, T/C: 25.9%
[16]
  viability, T/C: 20.9%
[17]
  viability, T/C: 28.7%
[18]
  viability, T/C: 30.9%
Second compound 1 µM, first compound 0.00316 µM
  viability, T/C: 19.8%
Second compound 1 µM, first compound 0.01 µM
  viability, T/C: 23.9%
[19]
  viability, T/C: 18%
[20]
  viability, T/C: 22.9%
[21]
  viability, T/C: 22.2%
[22]
  viability, T/C: 23.9%
Second compound 3.16 µM, first compound 0.00316 µM
  viability, T/C: 18.2%
Second compound 3.16 µM, first compound 0.01 µM
  viability, T/C: 23.4%
[23]
  viability, T/C: 19.8%
[24]
  viability, T/C: 18.6%
[25]
  viability, T/C: 26.9%
[26]
  viability, T/C: 22.7%
Second compound 10 µM, first compound 0.00316 µM
  viability, T/C: 18.2%
Second compound 10 µM, first compound 0.01 µM
  viability, T/C: 22.1%
[27]
  viability, T/C: 22.3%
[28]
  viability, T/C: 24%
[29]
  viability, T/C: 18.5%
[30]
  viability, T/C: 20%

## C#Cc1c(F)ccc2cc(O)cc(-c3ncc4c(N5CC6CCC(C5)N6)nc(OCC56CCCN5CC(F)C6)nc4c3F)c12 (stereo not drawn) + CNC(=O)c1ccc(Nc2nc(OC3CCCC3)c3c(-c4ccc5nc(C)oc5c4)c[nH]c3n2)c(OC)c1
[1]
  IC50: > 10000 nM
[2]
  IC50: 392 nM
[3]
  IC50: < 31.6 nM
[4]
  IC50: < 31.6 nM
[5]
  IC50: < 31.6 nM
[6]
  IC50: < 31.6 nM
[7]
  viability, T/C: 95.4%
[8]
  viability, T/C: 111%
[9]
  viability, T/C: 100%
[10]
  viability, T/C: 87.2%
Second compound 0.0316 µM, first compound 3.16 µM
  viability, T/C: 132%
Second compound 0.0316 µM, first compound 10 µM
  viability, T/C: 84.9%
[11]
  viability, T/C: 60.2%
[12]
  viability, T/C: 51.1%
[13]
  viability, T/C: 56.7%
[14]
  viability, T/C: 39.6%
Second compound 0.1 µM, first compound 3.16 µM
  viability, T/C: 32.7%
Second compound 0.1 µM, first compound 10 µM
  viability, T/C: 22%
[15]
  viability, T/C: 21.2%
[16]
  viability, T/C: 24.9%
[17]
  viability, T/C: 24.8%
[18]
  viability, T/C: 22.9%
Second compound 0.316 µM, first compound 3.16 µM
  viability, T/C: 24.3%
Second compound 0.316 µM, first compound 10 µM
  viability, T/C: 21.8%
[19]
  viability, T/C: 19.8%
[20]
  viability, T/C: 21.5%
[21]
  viability, T/C: 19.5%
[22]
  viability, T/C: 22.1%
Second compound 1 µM, first compound 3.16 µM
  viability, T/C: 23.2%
Second compound 1 µM, first compound 10 µM
  viability, T/C: 19.3%
[23]
  viability, T/C: 20.6%
[24]
  viability, T/C: 18.1%
[25]
  viability, T/C: 17.3%
[26]
  viability, T/C: 22%
Second compound 3.16 µM, first compound 3.16 µM
  viability, T/C: 25.4%
Second compound 3.16 µM, first compound 10 µM
  viability, T/C: 13.3%
[27]
  viability, T/C: 21.8%
[28]
  viability, T/C: 22.4%
[29]
  viability, T/C: 24.1%
[30]
  viability, T/C: 18.9%
Second compound 10 µM, first compound 3.16 µM
  viability, T/C: 17.3%
Second compound 10 µM, first compound 10 µM
  viability, T/C: 14.8%

## COc1c(OCCCN2CCOCC2)ccc2c3n(c(=NC(=O)c4cnc(N)nc4)nc12)CCN3
Compound 0.00316 µM
  viability, T/C: 86% and 84.6%
Compound 0.01 µM
  viability, T/C: 55.7% and 52.6%
Compound 0.0316 µM
  viability, T/C: 35.4% and 31.9%
Compound 0.1 µM
  viability, T/C: 12.5% and 11%
Compound 0.316 µM
  viability, T/C: 4.09% and 3.82%
Compound 1 µM
  viability, T/C: 2.57% and 1.98%
Curve of compound
  IC50: 14.1 nM and 12.1 nM

## C=CC(=O)N1CCN(c2nc(=O)n(-c3c(C)ccnc3C(C)C)c3nc(-c4c(O)cccc4F)c(F)cc23)C(C)C1 (stereo not drawn)
Compound 0.0316 µM
  viability, T/C: 91.5% and 117%
Compound 0.1 µM
  viability, T/C: 95.7% and 105%
Compound 0.316 µM
  viability, T/C: 121% and 122%
Compound 1 µM
  viability, T/C: 131% and 149%
Compound 3.16 µM
  viability, T/C: 174% and 201%
Compound 10 µM
  viability, T/C: 161% and 180%
Curve of compound
  IC50: > 10000 nM
